# Laboratory results reported in patent US12410156B2, “Kinase inhibitors” (Insilico Medicine IP Limited, priority 2019, dated 2025).
# How the values were obtained:
# [1] = molecular target: T1, TNIK (Homo sapiens, UniProt Q9UKE5); test: TNIK enzymatic assay (radiometric 33P-ATP filter assay); format: biochemical; details: second table (TNIK, MAP4K4, Collagen Production Data); read-out: TNIK_IC50
# T1 construct: purchased Eurofins (Kinase Profiler service protocol)
# Experimental: The compounds were studied for function as TNIK inhibitors to generate the data of Table 1. […] (specific activity and concentration as required). The reaction is initiated by the addition of the Mg/ATP mix. After incubation for 40 minutes at room temperature, the reaction is stopped by the addition of phosphoric acid to a concentration of 0.5%.
# [2] = molecular target: MAP4K4 (h) (Homo sapiens, UniProt O95819); test: MAP4K4 kinase assay (radiometric 33P-ATP filter assay); format: biochemical; details: read-out: MAP4K4_IC50
# Sequence of MAP4K4 (h) (O95819 whole entry): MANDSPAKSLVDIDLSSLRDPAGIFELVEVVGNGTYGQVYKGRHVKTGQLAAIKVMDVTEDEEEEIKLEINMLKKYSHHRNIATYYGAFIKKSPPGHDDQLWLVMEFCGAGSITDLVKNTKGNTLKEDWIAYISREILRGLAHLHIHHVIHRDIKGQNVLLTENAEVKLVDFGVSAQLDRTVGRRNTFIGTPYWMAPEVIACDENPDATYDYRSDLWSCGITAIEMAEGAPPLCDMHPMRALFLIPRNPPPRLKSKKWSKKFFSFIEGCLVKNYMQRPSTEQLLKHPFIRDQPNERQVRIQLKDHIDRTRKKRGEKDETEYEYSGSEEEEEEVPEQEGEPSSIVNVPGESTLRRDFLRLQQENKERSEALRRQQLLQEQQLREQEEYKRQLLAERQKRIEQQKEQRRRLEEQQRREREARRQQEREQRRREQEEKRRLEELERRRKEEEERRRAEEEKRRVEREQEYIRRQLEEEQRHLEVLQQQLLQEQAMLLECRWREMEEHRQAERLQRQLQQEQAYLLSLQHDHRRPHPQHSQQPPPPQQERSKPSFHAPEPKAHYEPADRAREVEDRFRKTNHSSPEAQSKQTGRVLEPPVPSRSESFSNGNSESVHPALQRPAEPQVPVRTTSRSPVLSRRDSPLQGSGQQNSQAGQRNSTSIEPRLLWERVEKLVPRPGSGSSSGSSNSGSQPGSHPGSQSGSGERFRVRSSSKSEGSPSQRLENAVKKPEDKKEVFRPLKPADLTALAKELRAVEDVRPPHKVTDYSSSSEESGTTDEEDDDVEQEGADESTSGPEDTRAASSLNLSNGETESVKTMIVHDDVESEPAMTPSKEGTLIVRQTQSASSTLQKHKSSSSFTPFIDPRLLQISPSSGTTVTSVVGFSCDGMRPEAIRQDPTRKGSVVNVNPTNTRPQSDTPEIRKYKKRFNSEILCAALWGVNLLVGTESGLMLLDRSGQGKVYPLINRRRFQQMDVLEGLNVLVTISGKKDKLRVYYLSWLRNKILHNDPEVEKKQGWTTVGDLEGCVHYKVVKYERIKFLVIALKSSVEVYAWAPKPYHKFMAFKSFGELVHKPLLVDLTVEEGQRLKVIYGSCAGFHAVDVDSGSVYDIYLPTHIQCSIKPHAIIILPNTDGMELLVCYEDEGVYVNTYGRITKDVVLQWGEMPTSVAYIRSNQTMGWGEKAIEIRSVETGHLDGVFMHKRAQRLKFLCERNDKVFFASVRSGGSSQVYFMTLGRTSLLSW
# Experimental: (specific activity and concentration as required). The reaction is initiated by the addition of the Mg/ATP mix. After incubation for 40 minutes at room temperature, the reaction is stopped by the addition of phosphoric acid to a concentration of 0.5%.
# [3] = test system: Human hepatic stellate cell LX-2; test: LX-2 fibrosis assay, collagen production (Western blot); format: cell-based; details: LX-2 cells, stimulated with 4 ng/mL TGF-b for 48 hours
# Experimental: Human hepatic stellate cell LX-2 were grown in DMEM (Invitrogen, 11960) supplied with 1% MEM Non-Essential Amino Acids (Invitrogen, 11140-050), 2% fetal bovine serum (Hyclone, SV30087.03), Penicillin (100 U/mL)-streptomycin (100 μg/mL) (Millipore, TMS-AB2-C) and 2 mM L-Glutamine (Invitrogen, 25030-001). After the cells grew in 12-well plates for 24 hours, the cell culture medium was changed to the same as above except using 0.4% fetal bovine serum. After 20 hour growth in the reduced serum medium, the cells were treated with indicated doses of compounds for 30 minutes. Subsequently, the cells were stimulated with 4 ng/mL TGF-b (R&D Systems, 240-B-002) for 48 hours. The cells were rinsed twice with DPBS before being harvested with 100 μL RIPA buffer (Sigma, R0278) supplemented with protease inhibitor cocktail (Roche, 04693132001) at 4° C. The total protein in each sample was quantified using BCA Protein Assay Kit (Pierce™, 23227) and equal amount of total protein of each sample was subject to Western blot analysis. Antibodies used were mouse anti-α-Actin (SPM332) ([…]), mouse anti-CTGF (E5) (sc-365970), and mouse anti-collagen α1 (3G3) (sc-293182), from Santa Cruz Biotechnologies; and mouse anti-GAPDH (6C5) (EMD Millipore, MAB374).
# T1 sequence (Q9UKE5 whole entry): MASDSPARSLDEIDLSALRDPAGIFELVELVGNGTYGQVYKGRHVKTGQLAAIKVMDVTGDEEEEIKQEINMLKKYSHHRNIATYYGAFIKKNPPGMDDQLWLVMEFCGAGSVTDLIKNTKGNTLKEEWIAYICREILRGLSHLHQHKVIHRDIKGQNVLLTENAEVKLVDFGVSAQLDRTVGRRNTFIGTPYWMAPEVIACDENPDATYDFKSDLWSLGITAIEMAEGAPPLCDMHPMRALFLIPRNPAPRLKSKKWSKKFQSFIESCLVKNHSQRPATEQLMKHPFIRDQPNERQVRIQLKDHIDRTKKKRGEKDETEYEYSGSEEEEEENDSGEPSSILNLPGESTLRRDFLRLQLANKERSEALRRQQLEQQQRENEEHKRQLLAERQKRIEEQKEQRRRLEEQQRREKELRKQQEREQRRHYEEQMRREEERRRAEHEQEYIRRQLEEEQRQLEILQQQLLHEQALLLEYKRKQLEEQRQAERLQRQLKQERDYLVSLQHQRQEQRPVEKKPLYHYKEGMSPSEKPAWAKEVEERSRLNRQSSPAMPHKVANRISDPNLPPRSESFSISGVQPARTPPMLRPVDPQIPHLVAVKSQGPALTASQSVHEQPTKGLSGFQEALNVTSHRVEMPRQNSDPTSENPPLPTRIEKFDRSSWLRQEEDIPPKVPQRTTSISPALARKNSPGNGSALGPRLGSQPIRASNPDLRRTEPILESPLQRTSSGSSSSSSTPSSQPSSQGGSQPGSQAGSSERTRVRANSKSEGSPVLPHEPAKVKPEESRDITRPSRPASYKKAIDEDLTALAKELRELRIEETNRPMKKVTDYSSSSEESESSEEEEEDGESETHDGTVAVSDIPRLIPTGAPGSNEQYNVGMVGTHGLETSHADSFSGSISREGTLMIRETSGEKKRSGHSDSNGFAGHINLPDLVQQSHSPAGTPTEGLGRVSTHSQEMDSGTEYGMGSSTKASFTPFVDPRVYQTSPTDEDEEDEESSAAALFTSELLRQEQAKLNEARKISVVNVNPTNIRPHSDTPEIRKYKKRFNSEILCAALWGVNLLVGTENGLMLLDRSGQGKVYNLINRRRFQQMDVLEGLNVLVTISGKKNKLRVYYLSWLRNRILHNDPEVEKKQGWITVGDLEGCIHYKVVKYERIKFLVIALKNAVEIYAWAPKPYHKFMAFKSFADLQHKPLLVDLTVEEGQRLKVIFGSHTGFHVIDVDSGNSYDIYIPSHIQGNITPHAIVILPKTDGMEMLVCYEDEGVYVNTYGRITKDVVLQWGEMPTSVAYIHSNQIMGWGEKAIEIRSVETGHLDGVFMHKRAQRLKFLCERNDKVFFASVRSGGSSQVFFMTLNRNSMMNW
IC50 [1],IC50 [2],"EC50 ([3]; LX-2, 48 h)",Compound,EC50 [3]
60.7 nM,36.6 nM,0.983 µM,"O=C(Nc1ccncc1F)c1ccc(-c2c(-c3ccc(F)cc3)ncn2[C@@H]2COC[C@H]2F)o1 (racemic) [Compound A-54, rac-5-(4-(4-fluorophenyl)-1-((3R,4S)-4-fluorotetrahydrofuran-3-yl)-1H-imidazol-5-yl)-N-(3-fluoropyridin-4-yl)furan-2-carboxamide]",
,,,"CN1CCN(c2ccc(NC(=O)c3ccc(-c4c(-c5ccc(F)cc5)ncn4C4CCCC4)o3)c(F)c2)CC1 [Compound A-52, 4-(4-(5-(1-cyclopentyl-4-(4-fluorophenyl)-1H-imidazol-5-yl)furan-2-carboxamido)-3-fluorophenyl)-1-methylpiperazin-1-ium]",0.042 µM
,,1.98 µM,"O=C(Nc1ccncc1F)c1ccc(-c2c(-c3ccc(F)cc3)ncn2C2COCC2F)o1 (centres unmarked) [Compound A-53, 5-(4-(4-fluorophenyl)-1-(4-fluorotetrahydrofuran-3-yl)-1H-imidazol-5-yl)-N-(3-fluoropyridin-4-yl)furan-2-carboxamide]",
